Regarding `Oc1ccc(Oc2ccncc2)cc1`, the melting point lay within 181 to 183 °C. In turn, `O=C1NCNC(=O)N1` showed a melting point of 290 to 292 °C. In the case of `O=C(C1Cc2ccccc2CN1)N1CCCC1` (configuration not stated) it was 88 to 90 °C. `O=Cc1cc(F)cc(F)c1` displayed a melting point of 17 to 19 °C.

`O=C(O)C1(Cc2nc3ccccc3[nH]2)CCCC1` displayed a melting point of 255 to 257 °C. The value for `CC(C)N1CCC(N2CCNCC2)CC1` was 46 to 48 °C.

Turning to `CC(C)n1c(S)nnc1N(C)C`, the melting point lay in the range of 127 to 129 °C. With `Cc1ccc(N)cc1S(=O)(=O)Nc1ccc(Cl)cc1`, the melting point lay in the range of 144 to 146 °C. Take `CCn1ncc2c(C(=O)O)cc(-c3ccccc3)nc21`: the melting point is 236 to 238 °C. Molecule `CC(C)NS(=O)(=O)c1ccc(/C=C/C(=O)O)cc1` gave a melting point of 223 to 225 °C.

Consider `Nc1nnc(Cl)c2ccccc12`, for which the melting point fell in the range of 159 to 161 °C.

`COCCNC(=O)Nc1ccc(N)cc1` gave a melting point of 135 to 137 °C. `C=CC(=O)Nc1cccc(C#N)c1`: the melting point lay within 117 to 119 °C. For `Cc1sc2[nH]c(-c3ccc(Cl)nc3)nc(=N)c2c1C`, the melting point is 133 to 135 °C.

As to `NN1C(=O)CNC1=O`, the melting point lay within 190 to 192 °C. For `C#CCOc1ccc(N)cc1`, the melting point lay in the range of 49 to 51 °C. Take `NC(=O)C1CCCCN1C(=O)c1cccc(Br)c1` (configuration not stated): the melting point lay within 177 to 179 °C. `Cc1ccc(NS(C)(=O)=O)c(C(=O)O)c1` gave a melting point of 195 to 197 °C.

As to `NS(=O)(=O)c1ncccn1`, the melting point lay in the range of 173 to 175 °C. The value for `Cc1cncc(CCC(=O)O)c1` was 99 to 101 °C. On to `COc1cc(C=O)c([N+](=O)[O-])cc1O`, for which the melting point fell in the range of 207 to 209 °C.

Molecule `O=C(O)Cc1csc(NC(=O)c2ccccc2F)n1` came in with a melting point of 204 to 206 °C.

Molecule `O=Cc1c(Cl)cccc1N1CCOCC1` came in with a melting point of 74 to 76 °C. `O=[N+]([O-])c1cc(O)cc(F)c1` yielded a melting point of 111 to 113 °C. The value for `O=C1CCCC(=O)N1Cc1cccc(Br)c1` was 76 to 78 °C; that for `CC(C)(C)c1ccc(C2(C(=O)O)CCCCC2)cc1` was 160 to 162 °C. Consider `Nc1ncc(Cl)cc1S(N)(=O)=O`, for which the melting point is 226 to 228 °C. `Cc1ccc(Oc2cccc(N(C)C)c2)c(N)c1` came in with a melting point of 64 to 66 °C. In turn, `O=C(O)c1cnn(-c2ccc(F)cc2)n1` came in with a melting point of 214 to 216 °C. As to `CCOc1ccc(Br)cc1N`, the melting point fell in the range of 51 to 53 °C. In the case of `O=C(O)CCc1nc(-c2ncccn2)no1` it was 202 to 204 °C. The value for `CCc1c(C(=O)O)cnn1Cc1ccccc1` was 124 to 126 °C; that for `CC(C)(C)n1ncc(Cl)c(Cl)c1=O` was 64 to 66 °C. `O=C1COc2c(Br)cc(Cl)cc21` showed a melting point of 139 to 141 °C. The molecule `CCOc1ccc(CCC(=O)O)cc1` returned a melting point of 102 to 104 °C. The value for `CC(NC1=NS(=O)(=O)c2ccccc21)C(=O)O` (configuration not stated) was 220 to 222 °C; that for `CN(C)S(=O)(=O)c1ccc2c(c1)NCC2` was 121 to 123 °C; that for `C=CCn1nnnc1S` was 66 to 68 °C. The value for `O=C(O)C1CC(=O)N(C2CCCC2)C1` (configuration not stated) was 136 to 138 °C; that for `COc1ccccc1OCc1ccc(C(=O)O)o1` was 183 to 185 °C; that for `CCCCc1ccc(C(=O)Nc2sccc2C(=O)O)cc1` was 183 to 185 °C. `O=C1CC(C(=O)O)CC(=O)N1`: the melting point fell in the range of 204 to 206 °C. Turning to `Cc1cc(Cl)cc([N+](=O)[O-])c1I`, the melting point is 73 to 75 °C. As to `COc1cc(C(=O)O)cc(CC(C)Cl)c1OC` (configuration not stated), the melting point was 103 to 105 °C. As to `O=C(O)CCc1nc2ccccc2s1`, the melting point was 97 to 99 °C. For `O=C1COc2cc(NC(=O)OCC(F)(F)F)c(Cl)cc2N1`, the melting point was in the range of 227 to 229 °C.

On to `O=C(O)c1ccc(OC2CCCC2)nc1`, for which the melting point is 165 to 167 °C.

As to `COc1ncc(Br)cn1`, the melting point lay within 55 to 60 °C. `O=C(O)c1ccc(O)c2ccccc12` yielded a melting point of 184 to 186 °C. Regarding `NC1(c2ccc(Cl)cc2)CCOCC1`, the melting point lay within 50 to 52 °C. `CC1CCCN(Cc2csc(N)n2)C1` (configuration not stated) displayed a melting point of 136 to 138 °C. The value for `O=C(CCl)Nc1sc2c(c1C(=O)c1ccccc1)CCCC2` was 110 to 112 °C; that for `CCOc1cc(C=CC(=O)O)ccc1OCC(C)C` was 72 to 74 °C; that for `Cc1nn(CC(C)C)c(C)c1CCC(=O)O` was 80 to 90 °C.

`Cc1cc(Br)cc2c(O)c(C(=O)O)cnc12` came in with a melting point of 299 to 301 °C.

The molecule `O=C(O)c1cnn(-c2cccc(C(F)(F)F)c2)c1C1CC1` displayed a melting point of 172 to 174 °C.

Consider `CCC(=O)c1cnn(C)c1`, for which the melting point lay in the range of 44 to 46 °C. `Cc1cc(N)ccc1-n1cnnn1` had a melting point of 135 to 137 °C. `O=S(=O)(Cl)c1ccc(Cl)nc1`: the melting point lay in the range of 48 to 50 °C.

`COC(=O)c1ccc(N)s1` displayed a melting point of 115 to 117 °C. The molecule `Cc1n[nH]c(C)c1S(=O)(=O)N(C)Cc1ccco1` showed a melting point of 160 to 163 °C. The value for `COCCOc1ccc(C(F)(F)F)cc1NC(=O)C(C)Cl` (configuration not stated) was 59 to 61 °C; that for `CC(Cl)C(=O)c1c(N)n(C)c(=O)n(C)c1=O` (configuration not stated) was 140 to 142 °C; that for `O=C(O)c1cccc(NC(=O)c2cccc(Br)c2)c1` was 273 to 275 °C. `COc1cc(C#N)ccc1OCC1CCCO1` (configuration not stated) displayed a melting point of 86 to 88 °C.

For the molecule `CCSc1ccc([N+](=O)[O-])cc1C(=O)O`, the melting point fell in the range of 189 to 191 °C. In the case of `O=C(O)CCn1cccc1` it was 62 to 64 °C; in that of `Nn1c(S)nnc1C1CCCCO1` (configuration not stated), 162 to 164 °C; in that of `CC(C)(C)C(=O)c1ccsc1N`, 101 to 103 °C.

`Nc1cc(-c2ccco2)no1` registered a melting point of 95 to 99 °C. The molecule `CCOc1ccc2c(c1)C(=O)NC2=O` gave a melting point of 159 to 161 °C. Regarding `CC(C)c1noc(-c2ccc(Br)cc2)n1`, the melting point is 29 to 31 °C. In the case of `Nc1ccccc1C(=O)N1CCOCC1` it was 74 to 76 °C; in that of `CC(=O)Nc1ccc(CCN)cc1`, 121 to 123 °C; in that of `NC(=O)Nc1cccc(F)c1C(=O)O`, 149 to 151 °C. The value for `Cc1nn(C(C)(C)C)c(C)c1S(=O)(=O)Cl` was 68 to 70 °C.

Take `Cn1cc(-c2cccc(C(=O)O)c2)cn1`: the melting point was in the range of 213 to 215 °C.

`O=C1Nc2cc(Cl)ccc2C1=O` gave a melting point of 264 to 266 °C.

The molecule `Oc1cccc(-n2cccn2)c1` registered a melting point of 131 to 133 °C. The value for `CCNC(=O)COc1ccc(C=O)cc1OC` was 109 to 111 °C; that for `O=C(Nc1nncs1)c1ccc(O)cc1` was 303 to 305 °C. In the case of `CNC(C(N)=O)c1cccc(Br)c1` (configuration not stated) it was 111 to 113 °C; in that of `O=C(O)c1ccc(Sc2ccccc2)c([N+](=O)[O-])c1`, 228 to 230 °C; in that of `CCOc1cc(C=CC#N)ccc1OC`, 57 to 59 °C. Regarding `O=c1[nH][nH]c2cccc(Cl)c12`, the melting point is 247 to 249 °C. Molecule `NNc1cccc(C(F)(F)F)n1` showed a melting point of 62 to 64 °C. Molecule `CCS(=O)(=O)N1Cc2ccccc2CC1C(=O)O` (configuration not stated) came in with a melting point of 110 to 114 °C.

On to `O=c1c2c(-c3ccco3)csc2nc(S)n1-c1ccccc1`, for which the melting point lay within 242 to 244 °C.

In the case of `CCOc1cc(-c2ccccc2)sc1C(=O)O`, the melting point is 174 to 176 °C. In turn, `O=C(O)C1CCN(S(=O)(=O)c2cc([N+](=O)[O-])ccc2Cl)CC1` came in with a melting point of 42 to 44 °C. In turn, `CCOC(=O)C(NS(C)(=O)=O)C(=O)OCC` came in with a melting point of 72 to 74 °C.

Consider `O=C(CCCl)NCC(=O)c1ccccc1`, for which the melting point lay within 120 to 122 °C.

As to `N#Cc1cccc(NCc2ccc(Cl)cc2)c1`, the melting point was 84 to 86 °C.

In the case of `Cc1nc(CNC(=O)OC(C)(C)C)ccc1C(=O)O`, the melting point is 163 to 165 °C. For `Clc1cc(CBr)c2ncccc2c1`, the melting point fell in the range of 116 to 118 °C. Take `Nc1nnc(C2CCCCC2)o1`: the melting point fell in the range of 222 to 224 °C. In turn, `CC(C)(C)OC(=O)Nc1cccc(O)c1` showed a melting point of 135 to 137 °C.

`CC(Oc1ccc(C#N)cc1)C(=O)O` (configuration not stated) yielded a melting point of 158 to 160 °C. For `OC(c1ccccc1)c1cccc(Cl)c1Cl` (configuration not stated), the melting point was in the range of 79 to 81 °C.

`N#Cc1c(N2CCCC2)n[nH]c1N` displayed a melting point of 208 to 210 °C. The value for `Oc1ccc2c(c1)CNCC2` was 194 to 196 °C; that for `O=C(O)c1cc(Br)c(S(=O)(=O)Cl)c(Br)c1` was 199 to 201 °C. `O=[N+]([O-])c1ccccc1-c1cn[nH]c1` displayed a melting point of 105 to 107 °C. Consider `Cc1n[nH]c2ncc(C=O)cc12`, for which the melting point lay within 202 to 204 °C.

In the case of `COC(=O)CNS(=O)(=O)c1ccc(Cl)nc1`, the melting point was in the range of 124 to 126 °C. The value for `COc1ccc(-c2nn(-c3ccccc3)cc2C(=O)O)cc1OC` was 188 to 190 °C; that for `Cn1nc(CC(=O)O)c2ccccc2c1=O` was 189 to 191 °C; that for `O=C(O)c1cccc(N2CCCNC2=O)c1` was 277 to 279 °C. `O=C1CN(Cc2ccnc(Cl)c2)CCN1` came in with a melting point of 143 to 145 °C. With `Cc1ccc(C)c(S(=O)(=O)N2CCNCC2)c1`, the melting point lay in the range of 108 to 110 °C. Take `COc1cc(C)c(C(=O)O)cc1OC`: the melting point was in the range of 146 to 148 °C. Molecule `O=C(CCl)c1ccc2c(c1)COC2` returned a melting point of 109 to 111 °C.

The molecule `CC(O)C(NC(=O)C1CC1)C(=O)O` (configuration not stated) showed a melting point of 138 to 140 °C.

The molecule `CC(N)c1ccc2c(c1)NC(=O)CO2` (configuration not stated) had a melting point of 130 to 132 °C. Turning to `CC(C)(C)c1n[nH]cc1C=O`, the melting point lay within 131 to 133 °C. Regarding `Nc1ccccc1C(=O)Nc1ccc(Cl)cn1`, the melting point fell in the range of 158 to 160 °C. `O=C(O)c1cc(Cl)cc(Cl)n1` came in with a melting point of 93 to 95 °C. Molecule `Cc1cc(C(=O)O)nn1-c1ccc(F)cc1F` showed a melting point of 221 to 223 °C. Turning to `CCOC(=O)c1nc2ccccc2c(=O)[nH]1`, the melting point is 189 to 193 °C. The molecule `O=C(CCl)NC(c1ccccc1)c1nccs1` (configuration not stated) gave a melting point of 108 to 110 °C. For `NNc1cc(Cl)ncn1`, the melting point lay within 151 to 153 °C. `CCn1c(=O)c(C(=O)CCl)c(N)n(Cc2ccccc2)c1=O` returned a melting point of 115 to 117 °C.

Source of the values: a melting point compilation (Tetko et al.).
